Reference: ChEMBL document CHEMBL4190403, “Design, synthesis, and biological evaluation of pyrazole derivatives containing acetamide bond as potential BRAFV600E inhibitors” (Bioorg Med Chem Lett, 2018)

How the values were obtained:
HT-29 = test: Antiproliferative activity against human HT-29 cells harboring BRAF V600E mutant after 24 hrs by MTT assay; assay type: functional, cell-based; conditions: HT-29, 24 h
[1] = target: Serine/threonine-protein kinase B-raf (Mus musculus, UniProt P28028, V600E); test: Inhibition of full-length GST-tagged mouse BRAF V600E mutant using recombinant human full length N-terminal His-tagged MEK1 as substrate preincubated for 1 hr followed by substrate addition measured after 25 mins by Nu-page gel-based phosphor screen analysis
[2] = Antiproliferative activity against human WM1361 cells harboring wild-type BRAF after 48 hrs by MTT assay; assay type: functional, cell-based; conditions: WM1361, 48 h
A-375 = test: Antiproliferative activity against human A375 cells harboring BRAF V600E mutant after 24 hrs by MTT assay; assay type: functional, cell-based; conditions: A-375, 24 h

Chain of Serine/threonine-protein kinase B-raf (P28028 whole entry, looked up, stated change not applied): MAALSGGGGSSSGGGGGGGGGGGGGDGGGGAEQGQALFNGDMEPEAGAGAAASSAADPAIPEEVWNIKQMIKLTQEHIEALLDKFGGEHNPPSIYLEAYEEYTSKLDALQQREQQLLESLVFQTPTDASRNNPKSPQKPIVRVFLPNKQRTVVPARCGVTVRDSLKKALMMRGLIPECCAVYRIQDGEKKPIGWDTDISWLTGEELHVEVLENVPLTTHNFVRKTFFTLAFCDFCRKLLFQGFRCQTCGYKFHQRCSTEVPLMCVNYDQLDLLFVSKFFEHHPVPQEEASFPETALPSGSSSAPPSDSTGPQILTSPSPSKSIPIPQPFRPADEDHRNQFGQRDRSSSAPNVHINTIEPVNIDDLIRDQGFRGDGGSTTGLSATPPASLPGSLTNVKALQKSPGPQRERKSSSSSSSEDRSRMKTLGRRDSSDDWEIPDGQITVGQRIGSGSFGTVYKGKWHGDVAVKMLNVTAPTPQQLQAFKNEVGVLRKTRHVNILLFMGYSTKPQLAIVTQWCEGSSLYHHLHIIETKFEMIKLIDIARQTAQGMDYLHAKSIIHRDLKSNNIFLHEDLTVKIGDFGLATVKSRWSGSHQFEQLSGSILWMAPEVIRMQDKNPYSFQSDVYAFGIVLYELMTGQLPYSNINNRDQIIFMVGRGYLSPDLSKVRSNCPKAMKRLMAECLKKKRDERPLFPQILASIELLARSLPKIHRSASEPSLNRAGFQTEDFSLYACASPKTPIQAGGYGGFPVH

SMILES | IC50 (HT-29) [µM] | IC50 [1] [µM] | IC50 (A-375) [µM] | IC50 [2] [µM]
CCn1cc(NC(=O)Cn2ccc(-c3cccc(Cl)c3)n2)cn1 | 12.9 | 1.19 | 19.4 | 26.5
COc1ccc(-n2cc(NC(=O)Cn3ccc(-c4ccccn4)n3)cn2)cc1 | 11.1 | 0.48 | 11.2 | 24.4
CCn1cc(NC(=O)Cn2ccc(-c3ccccn3)n2)cn1 | 26.8 | 3.86 | 23.3 | 29.8
O=C(Cn1ccc(-c2ccccn2)n1)Nc1cnn(-c2ccccc2)c1 | 10.8 | 0.53 | 10.6 | 20.7
Cn1cc(NC(=O)Cn2ccc(-c3ccccn3)n2)cn1 | 25.4 | 2.54 | 23.7 | 31.9
O=C(Cn1ccc(-c2cccc(Cl)c2)n1)Nc1cnn(Cc2ccccc2)c1 | 5.7 | 0.34 | 3.26 | 14.9
Cc1ccc(-n2cc(NC(=O)Cn3ccc4ccccc43)cn2)cc1 | 24.1 | 2.34 | 24.5 | 27.4
CCn1cc(NC(=O)Cn2ccc3ccccc32)cn1 | 49.9 | 1.82 | 27.2 | 47.8
Cn1cc(NC(=O)Cn2ccc3ccccc32)cn1 | 35.1 | 4.66 | 28.9 | 36.5
O=C(Cn1ccc2ccccc21)Nc1cnn(Cc2ccccc2)c1 | 12.3 | 1.96 | 17.6 | 26.8
O=C(Cn1ccc(-c2ccccn2)n1)Nc1cnn(Cc2ccccc2)c1 | 12.7 | 0.55 | 19.8 | 28
Cn1cc(NC(=O)Cn2ccc(-c3cccc(Cl)c3)n2)cn1 | 22.6 | 1.67 | 16.8 | 27.9

The next lines start with results.

IC50 (HT-29) [µM] | IC50 [1] [µM] | IC50 (A-375) [µM] | SMILES | IC50 [2] [µM]
8.73 | 0.45 | 2.74 | COc1ccc(CC(=O)Nc2cnn(-c3ccc(C)cc3)c2)cc1OC | 16.6
7.98 | 0.36 | 3.49 | COc1cccc(-n2cc(NC(=O)Cc3ccc(OC)c(OC)c3)cn2)c1 | 24
11.5 | 0.73 | 16.2 | COc1ccc(CC(=O)Nc2cnn(-c3ccccc3)c2)cc1OC | 25.6
25.6 | 3.66 | 17.9 | CCn1cc(NC(=O)Cc2ccc(OC)c(OC)c2)cn1 | 31.4
26.6 | 1.23 | 24.2 | O=C(Cn1ccc2ccccc21)Nc1cnn(-c2ccccc2)c1 | 25.8
12.7 | 1.28 | 19.8 | COc1ccc(-n2cc(NC(=O)Cn3ccc4ccccc43)cn2)cc1 | 24.8
6.16 | 0.26 | 3.08 | COc1cccc(-n2cc(NC(=O)Cn3ccc(-c4ccccn4)n3)cn2)c1 | 15.7
8.43 | 0.5 | 10.4 | COc1ccc(CC(=O)Nc2cnn(Cc3ccccc3)c2)cc1OC | 18.8
10.1 | 0.46 | 5.67 | COc1cccc(-n2cc(NC(=O)Cn3ccc4ccccc43)cn2)c1 | 16.5
9.33 | 0.41 | 4.57 | COc1ccc(-n2cc(NC(=O)Cc3ccc(OC)c(OC)c3)cn2)cc1 | 17.6
32.8 | 4.43 | 18.6 | COc1ccc(CC(=O)Nc2cnn(C)c2)cc1OC | 40.3
